Reference: patent US20140329863A1 (priority 2011, published 2014)
In brackets after ≈: the same amount, converted by molar mass. Like-named read-outs stand apart in the source and are kept apart here.

Experiments:
N2a-cl3 cells = details: mouse
[1] = tested on: PrP^Sc in ScN2a-cl3 cells; format: cell-based, mouse; details: Western immunoblots
[2] = tested on: PrP^Sc in dividing ScN2a-cl3 cells; format: cell-based, mouse
in vitro = details: mouse
[3] = Single-dose pharmacokinetics in FVB mice (oral gavage, IV); details: single oral dose 10 mg/kg; for Brain/Plasma AUClast Ratio: FVB mice; for AUClast ± SD, Brain / AUClast ± SD, Plasma: two FVB mice
[4] = read-out: EC50 (nM): Western, ScN2a-cl3 cells
[5] = read-out: Potency (nM) Western (EC50), dividing ScN2a-cl3 cells
[6] = read-out: EC50 (nM): ELISA, dividing ScN2a-cl3 cells
[7] = read-out: Potency (nM) ELISA (EC50), PrP^Sc ELISA, dividing ScN2a-cl3 cells
[8] = pH 1.2, simulated gastric fluid

| Structure (SMILES) | EC50 (nM): Calcein (LC50 values from calcein assays) (N2a-cl3 cells) | EC50 [1, 4] [nM] | EC50 [1, 5] [nM] | EC50 [2, 6] [nM] | EC50 [2, 7] [nM] | CC50 (in vitro) [µM] | solubility (physchem; [8]) [µM] | solubility (physchem; pH 7.4, aqueous buffer) [µM] | Brain/Plasma AUClast Ratio [3] | AUClast ± SD, Brain [3] [µM·h] | AUClast ± SD, Plasma [3] [µM·h] | EC50 ([2]; read-out: Antiprion activity EC50, thienopyridine analogs) [nM] |
| --- | --- | --- | --- | --- | --- | --- | --- | --- | --- | --- | --- | --- |
| Cc1[nH]c2ccccc2c1-c1csc(-c2cccnc2)n1 [IND-0024352] | MW: 291.4 EC50 (nM): ELISA: 2267 Calcein: >10,000 Western: 1698 | 1700 | 1700 | 2270 | 2270 | > 10 | – | – | – | – | – | – |
| COc1ccc(-c2cc(-c3ccc(OC)cc3O)[nH]n2)cc1 [IND-0025807] | MW: 296.3 EC50 (nM): ELISA: 167 Calcein: >10,000 Western: 95 | 95 | 95 | 167 | 167 | > 10 | – | – | – | – | – | – |
| Cn1c(=N)n(CC(=O)c2ccc(Cl)cc2)c2ccccc21 [IND-0026326] | MW: 299.8 EC50 (nM): ELISA: 5900 Calcein: >10,000 Western: 4967 | 4970 | 4970 | 5900 | 5900 | > 10 | – | – | – | – | – | – |
| COc1ccc(-c2cc(-c3ccc(C)cc3O)[nH]n2)cc1 [IND-0028801] | MW: 280.3 EC50 (nM): ELISA: 245 Calcein: >10,000 Western: 117 | 117 | 117 | 245 | 245 | > 10 | – | – | – | – | – | – |
| O=C(Nc1nc(-c2ccc(-c3ccccc3)cc2)cs1)C1CC1 [IND-0030410] | MW: 320.4 EC50 (nM): ELISA: 317 Calcein: >10,000 Western: 194 | 194 | 194 | 317 | 317 | > 10 | 17.7 (≈ 5.67 µg/mL) | 12.7 (≈ 4.07 µg/mL) | – | – | – | – |
| CCOc1ccc(NC(=O)c2cc3ccccc3cc2O)cc1 [IND-0031751] | MW: 307.3 EC50 (nM): ELISA: 156 Calcein: >10,000 Western: 42 | 42 | 42 | 156 | 156 | > 10 | – | – | – | – | – | – |
| COc1ccc(C(=O)Nc2ccc(-c3csc(C)n3)cc2)cc1 [IND-0033145] | MW: 324.4 EC50 (nM): ELISA: 412 Calcein: >10,000 Western: 161 | 161 | 161 | 412 | 412 | > 10 | – | – | – | – | – | – |
| CN(C)CCNc1nc(-c2ccc(Cl)cc2)nc2ccccc12 [IND-0034921] | MW: 326.8 EC50 (nM): ELISA: 3693 Calcein: >10,000 Western: 2009 | 2010 | 2010 | 3690 | 3690 | > 10 | – | – | – | – | – | – |
| COc1cccc(Nc2nc(N)c3ccccc3n2)c1 [IND-0035916] | MW: 266.3 EC50 (nM): ELISA: 4023 Calcein: >10,000 Western: 5987 | 5990 | 5990 | 4020 | 4020 | > 10 | – | – | – | – | – | – |
| COc1cc(N)c(-c2ccc3cc(OC)c(OC)cc3n2)cc1OC [IND-0044355] | MW: 340.4 EC50 (nM): ELISA: 2143 Calcein: >10,000 Western: 1833 | 1830 | 1830 | 2140 | 2140 | > 10 | – | – | – | – | – | – |
| Cn1c(=N)n(CC(=O)c2ccc(Br)cc2)c2ccccc21 [IND-0044723] | MW: 344.2 EC50 (nM): ELISA: 1983 Calcein: >10,000 Western: 1453 | 1450 | 1450 | 1980 | 1980 | > 10 | – | – | – | – | – | – |
| CN1CCN(c2ccc(Nc3ccnc4cc(Cl)ccc34)cc2)CC1 [IND-0045193] | MW: 352.9 EC50 (nM): ELISA: 1220 Calcein: >10,000 Western: 2073 | 2070 | 2070 | 1220 | 1220 | > 10 | – | – | 4.72 | 7.36 ± 0.78 | 1.56 ± 0.31 | – |
| COc1cc(CNCCO)cc(Br)c1OCc1ccccc1Cl [IND-0046380] | MW: 400.7 EC50 (nM): ELISA: 5080 Calcein: >10,000 Western: 2148 | 2150 | 2150 | 5080 | 5080 | > 10 | – | – | – | – | – | – |
| Oc1ccc(/C=C/c2cc(O)cc(O)c2)cc1 [IND-0047971] | MW: 228.2 EC50 (nM): ELISA: 2260 Calcein: >10,000 Western: 584 | 584 | 584 | 2260 | 2260 | > 10 | – | – | – | – | – | – |
| N#Cc1ccc(/C=C/c2ccc(F)cc2)cc1 [IND-0047979] | MW: 223.3 EC50 (nM): ELISA: 1700 Calcein: >10,000 Western: 528 | 528 | 528 | 1700 | 1700 | > 10 | – | – | – | – | – | – |
| COc1ccc2cc3c(N)c(C(=O)Nc4ccc(C(C)=O)cc4)sc3nc2c1 [IND-0052025] | MW: 391.4 EC50 (nM): ELISA: 57 Calcein: >10,000 Western: 61 | 61 | 61 | 57 | 57 | > 10 | – | – | – | – | – | 74 |
| N#Cc1sc2nc(-c3ccc4c(c3)OCO4)ccc2c1N [IND-0052851] | MW: 295.3 EC50 (nM): ELISA: 962 Calcein: >10,000 Western: 518 | 518 | 518 | 962 | 962 | > 10 | – | – | 2.59 | 2.12 ± 0.93 | 0.82 ± 0.31 | – |
| CCOc1ccc(C(=O)Nc2ccc3oc(-c4ccc(OC)cc4)nc3c2)cc1 [IND-0114138] | MW: 388.4 EC50 (nM): ELISA: 65 Calcein: >10,000 Western: 134 | 134 | 134 | 65 | 65 | > 10 | – | – | – | – | – | – |
| COc1ccc(-c2nc3cc(NC(=O)c4ccc(OCc5ccccc5)cc4)ccc3o2)cc1 [IND-0114202] | MW: 450.5 EC50 (nM): ELISA: 57 Calcein: >10,000 Western: 2565 | 2560 | 2560 | 57 | 57 | > 10 | – | – | – | – | – | – |
| Cc1cccc(Nc2nc(-c3ccc(-c4ccc(N(C)C)nc4)cc3)cs2)n1 [IND-0116044] | – | – | – | – | – | – | 77.1 (≈ 29.9 µg/mL) | 14.3 (≈ 5.54 µg/mL) | – | – | – | – |
| Cc1cccc(Nc2nc(-c3ccc(-c4ccc(OC(C)C)nc4)cc3)cs2)n1 [IND-0116091] | – | – | – | – | – | – | 13.1 (≈ 5.27 µg/mL) | 3.2 (≈ 1.29 µg/mL) | – | – | – | – |
| Cc1cccc(Nc2nc(-c3ccc(-c4cc[n+]([O-])cc4)cc3)cs2)n1 [IND-0116092] | – | – | – | – | – | – | 17.6 (≈ 6.34 µg/mL) | 15.2 (≈ 5.48 µg/mL) | – | – | – | – |
| COCCOc1ccc(-c2ccc(-c3csc(Nc4cccc(C)n4)n3)cc2)cn1 [IND-0116094] | – | – | – | – | – | – | 62.8 (≈ 26.3 µg/mL) | 2.2 (≈ 0.921 µg/mL) | – | – | – | – |
| Cc1cccc(Nc2nc(-c3ccc(-c4ccc[n+]([O-])c4)cc3)cs2)n1 [IND-0116097] | – | – | – | – | – | – | 49 (≈ 17.7 µg/mL) | 5.1 (≈ 1.84 µg/mL) | – | – | – | – |
| COCCOc1cccc(Nc2nc(-c3ccc(-c4ccccc4)cc3)cs2)n1 [IND-0116102] | – | – | – | – | – | – | 2.1 (≈ 0.847 µg/mL) | 2.7 (≈ 1.09 µg/mL) | – | – | – | – |
| Cc1cccc(Nc2nc(-c3ccc(-c4ccc(N5CCN(C)CC5)nc4)cc3)cs2)n1 [IND-0116103] | – | – | – | – | – | – | 37.1 (≈ 16.4 µg/mL) | 4.4 (≈ 1.95 µg/mL) | – | – | – | – |
| Cc1cccc(Nc2nc(-c3ccc(-c4ccnc(N5CCN(C)CC5)c4)cc3)cs2)n1 [IND-0116134] | – | – | – | – | – | – | 81.8 (≈ 36.2 µg/mL) | 40.2 (≈ 17.8 µg/mL) | – | – | – | – |
| CN(C)c1cc(-c2ccc(-c3csc(NC(=O)C4CC4)n3)cc2)ccn1 [IND- 116123] | – | – | – | – | – | – | > 150 | < 0.5 | – | – | – | – |
